Experiments:
[1] = system: PCP induced hyperactivity in male mice (NMRI); experiment: Phencyclidine (PCP) induced hyperactivity; format: in vivo; conditions: at 5 mg/kg, per os 60 min before PCP 2.3 mg/kg s.c.
Method: Male mice (NMRI, Charles River) weighing 20-25 g are used. Eight mice are used in each group receiving the test compound (5 mg/kg) plus PCP (2.3 mg/kg) including the parallel control groups receiving the vehicle of the test compound plus PCP or vehicle injections only. The injection volumen is 10 ml/kg. The experiment is made in normal light conditions in an undisturbed room. The test substance is injected per oss 60 min before injection of PCP, which is administered subcutaneous.
Immediately after injection of PCP the mice are placed individually in special designed test cage (20 cm×32 cm). The activity is measured by 5×8 infrared light sources and photocells spaced by 4 cm. The light beams cross the cage 1.8 cm above the bottom of the cage. Recording of a motility count requires interruption of adjacent light beams, thus avoiding counts induced by stationary movements of the mice.
Motility is recorded in 5 min intervals for a period of 1 hour. The drug effect is calculated on the total counts during the 1 hour behavioral test period in the following manner. […] The 100 percent effect of PCP is accordingly calculated to be total motility counts minus baseline. The response in groups receiving test compound is thus determined by the total motility counts minus baseline, expressed in percent of the similar result recorded in the parallel PCP control group. […]

[2] = system: hyperactivity in rats induced by PCP; conditions: cited from earlier work
[3] = system: catalepsy in rats; conditions: cited from earlier work

SMILES: Cc1ncc(C)n2nc(CCc3cn4c(n3)-c3ccccc3C4)nc12 [2-[-2-(5,8-Dimethyl-[1,2,4]triazolo[1,5-a]pyrazin-2-yl)-ethyl]-5H-imidazo[2,1-a]isoindole]
- Inhibition of PCP induced hyperactivity [1]: 100%

SMILES: COc1ccc(Cc2nccc3cc(OC)c(OC)cc23)cc1OC [Papaverine]
- Effect on hyperactivity induced by PCP [2]: reduced hyperactivity
- Effect on the cataleptic effect of the D2 receptor antagonist haloperidol ([3]; combined with haloperidol): potentiated the cataleptic effect
- Catalepsy on its own ([3]; papaverine alone): did not cause catalepsy on its own

From patent publication US9062060B2, “Substituted imidazo[2,1-A]isoindoles as PDE10 inhibitors” (H. Lundbeck A/S, priority 2010, dated 2015)
